Source: patent US20090239858A1, “THERAPEUTIC AMIDES” (ALLERGAN, INC., priority 2008, published 2009)

Test system: lashes and adjacent hairs of patients
Test: Eyelash and hair growth observed in glaucoma patients treated in one eye
Type: in vivo, human
Conditions: glaucoma patients treated in only one eye
Text: In the course of treating patients having glaucoma, treatment may only be appropriate in one eye. […] The lash appearance on the lids of the treated eyes would have appeared quite attractive if it represented a bilateral phenomenon. As a result of its asymmetric nature, the long lashes on one side could be construed as disturbing from a cosmetic standpoint. A systemic examination was preformed as a result of the asymmetric phenomenon. It soon became apparent that this altered appearance was not an isolated finding. […] Definite differences could be identified to varying degrees in the lashes and adjacent hairs of all patients who were taking the drug on a unilateral basis for longer than 6 months.
The changes in the lashes were apparent on gross inspection in several patients once attention was focused on the issue. In those with light colored hair and lashes, the differences were only seen easily with the aid of the high magnification and lighting capabilities of the slit lamp biomicroscope. In the course of glaucoma follow-up examination, attention is generally immediately focused on the eye itself. As a result of the high power magnification needed only one eye is seen at a time and the eye is seen at a high enough power that the lashes are not in focus. […]

CCNC(=O)CCC/C=C\C[C@@H]1[C@@H](/C=C/[C@@H](O)CCc2ccccc2)[C@H](O)C[C@@H]1O [bimatoprost]
lash appearance in treated eye versus non-treated eye: longer, thicker, and fuller
